Experiments:
[1] = test system: HepG2 cells; experiment: Muse cell cycle assay (flow cytometry); type: cell-based, human; conditions: HepG2, IC50, 24 h
Description: (§1) A total of 1.5 × 10^5 cells were seeded per well in 24-well plates for each cell line (quadruplicates for three different populations of each cell line). […] Negative control populations were incubated only with the appropriate culture medium. The samples were analyzed in the Muse^TM Cell Analyzer (Merck-Millipore®, Burlington, MA, USA). The method is based on the analysis of the cell cycle through the discrimination of three populations: cells in phase G0/G1, S or G2/M. For this, the Muse^TM Cell Cycle Kit purchased from Millipore (Billerica, MA, USA) was used following the specification of manufacturer.

[2] = test system: WRL68 cells; experiment: Muse cell cycle assay (flow cytometry); type: cell-based, human; conditions: WRL68, IC50, 24 h
Description: as §1

[3] = test system: MCF-7 cells; set-up: method as in PMID 21142067; conditions: MCF-7, 10 and 100 µM; cited from earlier work
[4] = test system: AKT/PI3K and ERK1/2/MAPK signaling pathways in WRL68 cells; experiment: Muse PI3K/MAPK Dual Pathway activation assay; type: cell-based, human; conditions: WRL68, IC50, 24 h
Description: (§2) The Muse® PI3K/MAPK Dual Pathway activation kit purchased from Millipore (Billerica, MA, USA) was employed to examine both the PI3K and MAPK signaling pathways simultaneously using the Muse Cell Analyzer (Merck-Millipore®, Burlington, MA, USA). The protocol followed was performed as the manufacturer instructions. The samples (quadruplicates for three different populations of each cell line) were analyzed in the Muse^TM Cell Analyzer.

[5] = test system: AKT/PI3K and ERK1/2/MAPK signaling pathways in HepG2 cells; experiment: Muse PI3K/MAPK Dual Pathway activation assay; type: cell-based, human; conditions: HepG2, IC50, 24 h
Description: as §2

[6] = test system: HepG2 cells; experiment: Morphological changes, optical microscopy; type: cell-based, human; conditions: HepG2, IC50, 24 h
Description: (§3) Optical microscopy (Olympus® model CX22LED, Tokyo, Japan) images of the cultures were obtained in the mentioned conditions at 10 and 40 magnifications for the cell line each after 24 h of the treatment’s application.

[7] = test system: WRL68 cells; experiment: Morphological changes, optical microscopy; type: cell-based, human; conditions: WRL68, IC50, 24 h
Description: as §3

[8] = test system: HepG2 cells; experiment: Wound healing (scratch) assay; type: cell-based, human; conditions: HepG2, IC50 concentration, 0-42 h
Description: (§4) The wound healing or scratch assay was used to assess the migration capacity of the WRL68 and HepG2 cell lines. With this objective, 3 × 10^5 cells were seeded per well in a 6-well plate in triplicate for each cell line. When the populations reached a confluence of 80–90%, a sterile pipette tip was used to disrupt in a straight line (make a wound) the layer of cells attached to the culture surface. Subsequently, it was washed with PBS to prevent the cells that had been lifted from being able to rejoin. […] Quantification of wound healing was performed by using the MRI-Wound Healing Tool for ImageJ software (ImageJ 1.53a version).

[9] = test system: WRL68 cells; experiment: Wound healing (scratch) assay; type: cell-based, human; conditions: WRL68, IC50 concentration, 0-42 h
Description: as §4

[10] = test system: p53, c-Myc, Bcl-2, SOD, HSP-60 and Bax proteins in WRL68 cells; experiment: Western blot of protein expression; type: cell-based, human; conditions: WRL68, IC50, 24 h, normalized to actin
Description: (§5) Triplicates of three different populations of each cell line, WRL68 and HepG2, were seeded in 6-well plates with a density of 2.5 × 10^5 cells per well. […] For protein extraction, each sample was resuspended in 20 μL of RIPA buffer (150 mM NaCl, 1% Igepal, 0.5% deoxycholic acid, 0.1% SDS, 50 mM Tris HCl pH 7.5, 0.2 M PMSF, […] and Thermo Scientific® PierceTM inhibitor cocktail, Waltham, MA, USA), and held on ice for 15 min. They were centrifuged at 15,000× g for 10 min at 4 °C, the supernatant was collected and stored at −80 °C for further analysis. The quantification of the protein concentration was carried out through the Bradford method. The methodology used for Western blot analysis is described by Mokhtari et al.. Brie fly, the initial separation of the extracts was performed by a 12% polyacrylamide gel electrophoresis under denaturing conditions (SDS-PAGE). A standardized load of 30 μg of protein per well was used after denaturing the samples at 95 °C for 5 min and adding the loading buffer (0.25 mM Tris-HCl pH 6.8, 10% SDS, 1 M DTT and glycerol). The proteins were transferred, by the semi-dry transfer method, (60 mA per gel, 1 h) using the TransBlot Turbo system (BioRad®, Berkeley, CA, USA), to a PVDF membrane. The membranes were blocked with blocking buffer (TBS, 0.1% Tween-20 and 3% skimmed milk) for 1 h at room temperature, incubating with the specific primary antibodies against the proteins studied at 4 °C overnight. The primary antibodies (from Santa Cruz Biotechnology®, Dallas, TX, USA) were diluted in blocking buffer. The membranes were washed with TBS-T (TBS, 0.1% Tween-20) for 5 min three times under stirring, and incubated with the corresponding secondary antibody (from Sigma®, St. Louis, MO, USA) (Table 1) for 1 h at room temperature, repeating the previous washing process later. These secondary antibodies have the enzyme horseradish peroxidase (HRP) coupled, which allows chemiluminescence to be detected in the presence of the protein band due to its ability to oxidize the luminol solution (ECL-plus Western-blot detection system, GE Healthcare, Chicago, IL, USA). The reaction produced was captured inside a ChemiDoc Imaging System (Bio-Rad®, Berkely, CA, USA). The program used to analyze the images obtained was Image Lab Software (Bio-Rad®, for PC 6.1 version). The expression of each protein was normalized referring to actin levels and were represented based on the results obtained for the control situation (WRL68 line without treatment) as percentage of expression (%). The expression obtained in each protein was analyzed through the mentioned program in triplicate.

[11] = test system: p53, c-Myc, Bcl-2, SOD, HSP-60 and Bax proteins in HepG2 cells; experiment: Western blot of protein expression; type: cell-based, human; conditions: HepG2, IC50, 24 h, normalized to actin
Description: as §5

C[C@H]1[C@H](C)CC[C@]2(CO)CC[C@]3(C)C(=CC[C@@H]4[C@@]5(C)CC[C@H](O)C(C)(C)[C@@H]5CC[C@]43C)[C@H]12 [uvaol, urs-12-ene-3,28-diol]
change in percentage of cells in G0/G1 phase vs control [1]: statistically significant increase | change in percentage of cells in G2/M phase vs control [1]: equally significant reduction | change in percentage of cells in S phase vs control [1]: No differences were found | change in percentage of cells in G0/G1 phase vs control [2]: significant decrease | change in percentage of cells in G2/M phase vs control [2]: increase | change in percentage of cells in S phase vs control [2]: significant decrease | induction of apoptosis [3]: did not show this effect | change in percentage of cells in which only ERK1/2/MAPK was activated [4]: not altered | decrease in cells that only activated the AKT/PI3K pathway [4]: 22% | increase in cells that activated the dual pathway (MAPK and PI3K) [4]: 25% | net balance: activation of the ERK1/2/MAPK signaling pathway [4]: 25% | net balance: modification of the PI3K pathway [4]: no modification | change in percentage of cells that only activated ERK1/2/MAPK [5]: not altered | decrease in cells that only activated AKT/PI3K [5]: 25% | increase in cells with activated dual pathway (MAPK and PI3K) [5]: 9% | net balance: increase of ERK1/2/MAPK signaling pathway [5]: 9% | net balance: inhibition of AKT/PI3K signaling pathway [5]: 16% | cell morphology change [6]: slightly more rounded, with very sharp projections and a loss of adhesion to the support | cell morphology change [7]: become rounded and have cytoplasmic projections | wound closure (cell migration) [8]: the wound remains until the end of the trial | wound closure (cell migration) [9]: wound healing was maintained during more hours than the control group | Bax expression vs control [10]: did not produce changes | Bcl-2 expression vs control [10]: did not produce changes | HSP-60 expression vs control [10]: increased in both lines | SOD expression vs control [10]: increased | c-Myc expression vs control [10]: increase | p53 expression vs control [10]: increased | Bax expression vs control [11]: increased | Bcl-2 expression vs control [11]: decreased | HSP-60 expression vs control [11]: increased in both lines | SOD expression vs control [11]: remained unchanged | c-Myc expression vs control [11]: maintained | p53 expression vs control [11]: remained unchanged
